Measurements reported in patent US20230167437A1, “COMPOSITIONS FOR TREATING CANCER WITH KRAS MUTATIONS AND USES THEREOF” (Aadigen, LLC, priority 2020, published 2023).

Columns and labels:
KRAS 35G>T mutant G12V = test: Indel frequencies at the endogenous target sequences (T7E1 / deep sequencing) after ADGN/Cas9 mRNA/gRNA transfection; assay type: cell-based, human; settings: for indel frequencies: deep sequencing, 72 hours after transfection, Cas9 mRNA 0.15 μg, gRNA 0.2 μg, ADGN-100
Method: (§1) Complex formation with mRNA:gRNA: ADGN peptide/mRNA/gRNA particles were prepared at a 20:1:1 molar ratio. ADGN/Cas9mRNA/sgRNA complexes were prepared at a 20/1/1 molar ratio with 0.5 μg mRNA: 1.5 μg sgRNA and 5% Glucose or DMEM (example for 96 well plates). […] Premixed Cas9 mRNA/gRNA were prepared in sterile water at room temperature in a glass vial (1-4 ml). ADGN-peptide solution was added dropwise (1 drop/sec) under magnetic agitation at 400 rpm to obtain a 1:2 ratio, and incubated for 30 min at room temperature or 37° C. Just before transfection, 150 μl Glucose or DMEM was added and the solution was mixed under magnetic agitation at 400 rpm for 1 minute. Then the solution was incubated for 5 min at 37° C. Then the complexes was ready for cell transfection or IV administration. Prior to IV administration, complexes were diluted in sucrose 5% solution.
(§2) Transfection protocol. The following protocols are reported for 24/48/96 well plate format transfection. Cells should be trypsinized and seeded a day prior transfection Cells were cultured in Dulbecco's Modified Eagle's Medium (DMEM), supplemented with 2 mM glutamine, 1% antibiotics (streptomycin 10,000 μg/mL, penicillin, 10,000 IU/mL) and 10% (w/v) foetal calf serum (FCS), at 37° C. in a humidified atmosphere containing 5% CO2. 96 well plates seeded with 50,000 cells, the day prior transfection, grown to 60-80% confluence and set up to be at around 70% confluence at the day of transfection. Before transfection, cells are washed twice with DMEM (without FBS and pen/strep) (100 μl/well). Cells were then overlaid with 25 μl of complex solution, mixed gently and incubated for 10 min at 37° C.+5% CO2. 50 μl of fresh DMEM (without FBS and Antibiotics) was added and cells were incubated for 2 h at 37° C.+5% CO2 (time of exposure can be adjusted based on sensitivity of the cells). 250 μL of DMEM (containing 10% FCS and 1% antibiotics) were then added without removing the overlay of ADGN peptide/mRNA complexes. Cells were returned to the incubator (37° C., 5% CO2) and analyzed 48 hours to 72 hours post transfection.
(§3) Nine different gRNAs targeting KRAS 35G>T mutant G12V (gRNA35T1, gRNA35T2, gRNA35T3, gRNA35T4, gRNA35T5, gRNA35T6, gRNA35T7, gRNA35T8 and gRNA35T9 (see FIG. 18)) were evaluated on SW403 and SW480 cancer cells harboring G12V KRAS mutation. Cas9 mRNA (0.15 μg) and gRNA (0.2 μg) were associated with ADGN-peptides as reported in experimental procedure. SW403, SW480 and HT-29 cells were cultured in 48 well plate format and treated with free mRNACas9-gRNA, or ADGN-100/mRNACas9:gRNA complex. Indel frequencies at the endogenous target sequences was evaluated 72 hours after transfection by either T7E1 method and by deep sequencing. Cell proliferation was analyzed over a period of 5 days using CellTiter Glow kits on GlowMax (Promega).
(§4) In order to confirm the specificity of sgRNAs targeting G12V, G12C or G12D KRAS mutation, gRNA35T3 targeting G12V, gRNA34T6 targeting G12C, and gRNA35A5 targeting G12D were evaluated on a large panel of cancer cells harboring different KRAS mutations including SW403, SW480, PANC1, PK-45H, PK-1, MIA-PACA, H23, H358, HT-29, HS-68 and LS513. Cas9 mRNA (0.2 μg) and gRNA (0.4 μg) were associated with ADGN peptide at molar ratio 20/1 (peptide/nucleic acid). Cells were cultured in 48 well plate format and treated with free mRNACas9-gRNA, or ADGN/mRNACas9:gRNA complex. Indel frequencies at the endogenous target sequences was evaluated 72 hours after transfection by either T7E1 method and cell proliferation was analyzed over a period of 5 days using CellTiter Glow kits on GlowMax (Promega).

SW403 and SW480 cells = test: Cell proliferation over 5 days (CellTiter Glow); assay type: cell-based, human
Method: as §2, §3

[1] = tested on: G12V, G12D, G12C KRAS mutant cells and WT KRAS cells; test: Specificity of lead sgRNAs on a large panel of cancer cells harboring different KRAS mutations (indel, proliferation); assay type: cell-based, human; settings: Cas9 mRNA 0.2 μg, gRNA 0.4 μg
Method: as §4

phospho-Akt (Ser 473) = test: Western blot of KRAS downstream signaling 48 h post transfection; assay type: cell-based, human; settings: SW403 cells
Method: (§5) In order to verify the specific effect of your lead sgRNA targeting G12V and G12D KRAS mutation, gRNA35A5 G12D and gRNA35T3 G12V on KRAS signal transduction pathway in PANC-1 and SW403 cells, we measured the levels of downstream signaling proteins that are activated by KRAS. We specifically looked for changes in key signaling pathways, such as mitogen-activated protein kinase (MAPK) or PI3K/Akt, which are known to be the major effector pathways of KRAS activation. Cas9 mRNA (0.2 μg) and gRNA (0.2 μg or 0.5 μg) were associated with ADGN peptide at molar ratio 20/1 (peptide/nucleic acid). PANC1 and SW403 cells were cultured in 48 well plate format and treated with free mRNACas9-gRNA, or ADGN/mRNACas9:gRNA complex. Levels of Erk and Akt phosphorylation were measured 48 h post transfection by western blot using phospho-Akt (Ser 473) (CST, #9271, RRID:AB_329825) and phospho-p44/42 MAPK (Erk1/2) (Thr202/Tyr204) (CST, #4370, RRID:AB_2315112).

[2] = tested on: phospho-p44/42 MAPK (Erk1/2) (Thr202/Tyr204); test: as above; assay type: cell-based, human; settings: SW403 cells
Method: as §5

pERK = test: Downstream signaling proteins quantified by ELISA on tumors; assay type: in vivo, mice; settings: SW403 tumors
Method: The specificity of gRNA35A5 G12D and gRNA35T3 G12V for their targets in PANC-1 and SW403 tumors cells, have been analyzed. Female nude mice 6-weeks of age were injected with either Human pancreatic carcinoma cell (Panc1-Luc) containing the 35G>A mutation or Human colorectal cancer cells (SW403) containing 35G>T KRAS mutation (20×10^6 cells in 200 μl PBS). A period of 2 weeks was allowed for tumor development before the beginning of the experiments.
Animal were injected on day 1 and day 7. Mice received IV injection of 100 μl ADGN/mRNA complex in 5% glucose. At Day 50, animals were sacrificed and tissues/tumors were harvested. At Day 50 post treatment, level of expression of housekeeping genes; glyceraldehyde-3-phosphate dehydrogenase (GAPDH), HPRT-1 and mitochondrial ATP synthase 6 (mATPsy6) was evaluated by PCR in the tumor, liver, spleen and lung.
We analyzed the level of KRAS G12D or KRAS G12V gene editing by deep sequencing in PANC1 (FIG. 14A) and SW403 (FIG. 14B) tumors, respectively. […] The level of downstream signaling proteins (pAKT and pERK) were quantified by ELISA on PANC1 and SW403 tumors. […] Given that targeting KRAS using Cas9/sgRNA can induce various secondary mutations at or near the target sites, deep sequencing shown similar level of secondary oncogenic mutations (G12D, G12V, G12C, G13D, G12R, G12A, and G12S) in KRAS-mutant cancer cells (SW403/PANC-1) or cells containing wild-type KRAS (HT29) either in vitro or in vivo.

KRAS 34G>T mutant G12C = test: Indel frequencies at the endogenous target sequences (T7E1 / deep sequencing) after ADGN/Cas9 mRNA/gRNA transfection; assay type: cell-based, human; settings: for indel frequencies: deep sequencing, 72 hours after transfection, Cas9 mRNA 0.1 μg, gRNA 0.2 μg; for indel editing and disruption of G12C mutant KRAS (FIG. 3A): H23, H358 vs HT29 and PANC1 cells
Method: as §1, §2
(§6) Eight different gRNAs targeting KRAS 34G>T mutant G12C (gRNA34T1, gRNA34T2, gRNA34T3, gRNA34T4, gRNA34T5, gRNA34T6, gRNA34T7 and gRNA34T8) were evaluated on MIA-PACA, H23, H358, H29 and PANC1 cells. Cas9 mRNA (0.1 μg) and gRNA (0.2 μg) were associated with ADGN peptide at molar ratio 20/1 (peptide/nucleic acid). MIA-PACA, H23, H358, PANC1 and HT29 cells were cultured in 48 well plate format and treated with free mRNACas9-gRNA, or ADGN/mRNACas9:gRNA complex. Indel frequencies at the endogenous target sequences was evaluated 72 hours after transfection by either T7E1 method or deep sequencing. Cell proliferation was analyzed over a period of 5 days using CellTiter Glow kits on GlowMax (Promega).
as §4

[3] = tested on: Mia-PACA, H23 and H358 cells; test: Cell proliferation over 5 days (CellTiter Glow); assay type: cell-based, human; settings: for inhibition of proliferation or survival (FIG. 3B): H23, H358 vs KRAS WT HT29 or HS-68 and PANC1 cells
Method: as §2, §6

| Sequence | effect on non-targeted KRAS mutant cells and WT KRAS cells (FIGS. 4A-4B) [1] | indel frequencies (KRAS 34G>T mutant G12C; H23 cells) | indel frequencies (KRAS 34G>T mutant G12C; H358 cells) | indel frequencies (KRAS 34G>T mutant G12C; Mia-PACA cells) | indel editing and disruption of G12C mutant KRAS (FIG. 3A) (KRAS 34G>T mutant G12C; Mia-PACA) | inhibition of proliferation or survival (FIG. 3B) ([3]; Mia-PACA) | other results |
| --- | --- | --- | --- | --- | --- | --- | --- |
| GGTAGTTGGAGCTGTTGGCG (guide GGTAGTTGGAGCTGTTGGCG; chemistry not given here) [gRNA35T3, sgRNA target KRAS G12V mutation (c.35G>T); PAM TAG] | does not alter G12D and G12C KRAS mutant cells or WT KRAS cells | – | – | – | – | – | indel frequency (KRAS 35G>T mutant G12V; KRAS G12V mutated cancer cells): > 70%; indel editing and disruption of G12V mutant KRAS (FIG. 1A) (KRAS 35G>T mutant G12V; SW403, SW480 vs wild type KRAS HT29 cells, T7E1): specifically induced indel editing and efficient disruption; indel frequency (KRAS 35G>T mutant G12V; SW403 and SW480 cells, T7E1, 72 hours, Cas9 mRNA 0.2 μg, gRNA 0.4 μg): > 65%; indel frequencies (KRAS 35G>T mutant G12V; SW403 cells (heterozygous 35G>T)): 65%; indel frequencies (KRAS 35G>T mutant G12V; SW480 cells (homozygous 35G>T)): 81%; fold more efficient than gRNA35T6 (cell proliferation) (SW403 and SW480 cells; SW403 and SW480 cells): 2 fold; fold more efficient than gRNA35T8 (cell proliferation) (SW403 and SW480 cells; SW403 and SW480 cells): 1.5 fold; cell proliferation blocked (SW403 and SW480 cells; SW403 and SW480 cells, 5 days): 75%; inhibition of proliferation or survival (FIG. 1B) (SW403 and SW480 cells; SW480 and SW403 cells vs HT29 cells harboring KRAS WT): specifically inhibit proliferation or survival of SW480 and SW403 cells; Akt phosphorylation (phospho-Akt (Ser 473)): poorly; level of p-Erk [2]: significantly affected; level of p-ERK (pERK): significantly affected |
| GTAGTTGGAGCTTGTGGCGT (guide GTAGTTGGAGCTTGTGGCGT; sgRNA, chemical modifications not given here, further chemistry not given here) [gRNA34T6, sgRNA target KRAS G12C mutation (34G>T); PAM AGG] | does not alter G12D and G12V KRAS mutant cells or WT KRAS cells | 78% | 67% | 71% | induced indel editing and efficient disruption of G12C mutant KRAS | specifically inhibit proliferation or survival of Mia-PACA, H23 and H358 cells | indel frequency (KRAS 34G>T mutant G12C; KRAS G12C mutated cancer cells): > 70%; indel frequency (KRAS 34G>T mutant G12C; Mia-PACA, H23 and H358 cells, T7E1, 72 hours, Cas9 mRNA 0.2 μg, gRNA 0.4 μg): > 70%; fold more efficient than gRNA34T3 (cell proliferation) [3]: 3 fold; fold more efficient than gRNA34T5 (cell proliferation) [3]: 2 fold; cell proliferation blocked ([3]; Mia-PACA, H23 and H358 cells, 5 days): 75% |
| GTT GGA GCT TGT GGC GT (guide GTTGGAGCTTGTGGCGT; chemistry not given here) [gRNA34T3, sgRNA target KRAS G12C mutation (34G>T); PAM AGG] | – | 48% | 37% | 51% | induced indel editing and efficient disruption of G12C mutant KRAS | specifically inhibit proliferation or survival of Mia-PACA, H23 and H358 cells | – |
| TTG TGG TAG TTG GAG CTT G (guide TTGTGGTAGTTGGAGCTTG; sgRNA, chemical modifications not given here, further chemistry not given here) [gRNA34T5, sgRNA target KRAS G12C mutation (34G>T); PAM TGG] | – | 68% | 67% | 75% | induced indel editing and efficient disruption of G12C mutant KRAS | specifically inhibit proliferation or survival of Mia-PACA, H23 and H358 cells | – |
